Measured values reported in ChEMBL document CHEMBL3425489, “X-ray crystal structures of Escherichia coli RNA polymerase with switch region binding inhibitors enable rational design of squaramides with an improved fraction unbound to human plasma protein” (J Med Chem, 2015).
Values after ≈ are worked out from the molar mass of the structure shown.

Columns and labels:
[1] = Inhibition of Escherichia coli switch region of RNA polymerase after 1 hr by transcription-coupled translation assay
[2] = test system: Plasma; assay: (§1) Fraction unbound (%) in human plasma at 10 uM by LC/MS-MS analysis; type: ADME, cell-free; settings: 10 µM
[3] = Equilibrium solubility of the compound in phosphate buffer by LC-MS analysis
[4] = octanol/water, pH 7.4
Description: (§2) Partition coefficient, log D of the compound at pH 7.4 by shake flask method

[5] = test system: Haemophilus influenzae; assay: Antibacterial activity against Haemophilus influenzae acrB by broth microdilution method; type: functional
[6] = as §1; type: ADME, cell-free
[7] = physchem; settings: octanol/water, pH 7.4
Description: as §2

fraction unbound at 10 µM [6]	logD [7]	SMILES	IC50 [1] [nM]	Fu [2] [%]	solubility thermodynamic [3] [µM]	logD [4]	MIC [5] [µM]
		Cc1noc(C)c1S(=O)(=O)Nc1c(N2CCC(c3ccccc3)CC2)c(=O)c1=O	26000	< 1	763 (≈ 317 µg/mL)	-0.6	
		Cc1noc(C)c1S(=O)(=O)Nc1c(N2CCC(NCc3ccc(C(F)(F)F)cc3)CC2)c(=O)c1=O	290	6.6	> 1000	0.8	25 (≈ 12.8 µg/mL)
		Cc1noc(C)c1S(=O)(=O)Nc1c(N2CCC(N(C)Cc3ccc(Cl)cc3)CC2)c(=O)c1=O	330	3.8	> 1000	0.5	50 (≈ 24.6 µg/mL)
		CCCC/C(C)=C/C=C(\C)C(=O)c1c(O)cc(C(C)CC/C=C/NC(=O)OC)oc1=O (racemic)	1000	< 1	679 (≈ 293 µg/mL)	-0.3	
		Cc1ccc(CC2CCN(c3c(NS(=O)(=O)c4c(C)noc4C)c(=O)c3=O)CC2)cc1	290	< 1	> 1000	0.5	12.5 (≈ 5.54 µg/mL)
		Cc1noc(C)c1S(=O)(=O)Nc1c(N2CCCC(Cc3ccccc3)C2)c(=O)c1=O (centres undefined)	71000	< 1	985 (≈ 423 µg/mL)	-0.3	
		Cc1noc(C)c1S(=O)(=O)Nc1c(N2CCN(CCc3ccccc3)CC2)c(=O)c1=O	43000	4.9	560 (≈ 249 µg/mL)	-0.4	
		Cc1noc(C)c1S(=O)(=O)Nc1c(N2CCC(N(C)CC3CCCCC3)CC2)c(=O)c1=O	> 100000	38	12.2 (≈ 5.67 µg/mL)	-0.4	
		Cc1nn(C(F)F)cc1S(=O)(=O)Nc1c(N2CCC(Cc3ccccc3)CC2)c(=O)c1=O	7900	< 1	> 1000	-0.1	100 (≈ 46.4 µg/mL)
< 0.01	0.1	Cc1noc(C)c1S(=O)(=O)Nc1c(N2CCC(Cc3ccccc3)CC2)c(=O)c1=O	280		> 1000		200 (≈ 85.9 µg/mL)
		Cc1noc(C)c1C(=O)Nc1c(N2CCC(Cc3ccccc3)CC2)c(=O)c1=O	> 100000	< 1	508 (≈ 200 µg/mL)	1.7	
		Cc1noc(C)c1S(=O)(=O)Nc1c(N2CCC(N(C)Cc3ccc(OC(F)F)cc3)CC2)c(=O)c1=O	430				50 (≈ 26.2 µg/mL)
		CO[C@H]1/C=C/O[C@@]2(C)Oc3c(C)c(O)c4c(O)c(c(/C=N/N5CCN(C)CC5)c(O)c4c3C2=O)NC(=O)/C(C)=C\C=C\[C@H](C)[C@H](O)[C@@H](C)[C@@H](O)[C@@H](C)[C@H](OC(C)=O)[C@@H]1C [RIFAMPIN]		16.5	751 (≈ 618 µg/mL)	1.3	0.025 (≈ 0.0206 µg/mL)
		Cc1noc(C)c1S(=O)(=O)Nc1c(N2CCC(CCc3ccccc3)CC2)c(=O)c1=O	320	< 1	636 (≈ 282 µg/mL)	0	
		COc1ccc(CN2CCN(c3c(NS(=O)(=O)c4c(C)noc4C)c(=O)c3=O)CC2)cc1	3000	1.8	497 (≈ 229 µg/mL)	-0.9	> 200
		CC(=O)NC[C@H]1CN(c2ccc(N3CCOCC3)c(F)c2)C(=O)O1 [LINEZOLID]					12.5 (≈ 4.22 µg/mL)
		Cc1noc(C)c1S(=O)(=O)Nc1c(N2CCC(NCc3ccc(F)cc3)CC2)c(=O)c1=O	2700	26	52 (≈ 24.1 µg/mL)	0	> 200
		Cc1noc(C)c1S(=O)(=O)Nc1c(N2CCC(C)CC2)c(=O)c1=O	> 100000	1.6	773 (≈ 273 µg/mL)	-1	
		O=c1c(NS(=O)(=O)c2ccccc2)c(N2CCC(Cc3ccccc3)CC2)c1=O	2100	< 1	> 1000	0.2	200 (≈ 82.1 µg/mL)
		Cc1noc(C)c1S(=O)(=O)Nc1c(N2CCN(Cc3ccc(C#N)cc3)CC2)c(=O)c1=O	1500	2.9	> 1000	-1.3	200 (≈ 91.1 µg/mL)
